Source: US20230416238A1, “N-[(1,3-BENZOXAZOL-2-YL)-HETEROCYCLE]AMIDE DERIVATIVES FOR THE TREATMENT AND PROPHYLAXIS OF HEPATITIS B VIRUS INFECTION” (Hoffmann-La Roche Inc., priority 2020, published 2023)

Experiments:
Assay type in all cases: cell-based
[1] = Cytotoxicity in PHH natural infection assay (Cell Counting Kit-8); conditions: HBV-infected primary human hepatocytes, CCK8
Method: (§1) Detailed procedures regarding primary human hepatocyte (PHH) HBV natural infection assay are described as below. One tube of frozen PHH (10 million cells) is thawed in 37° C. water bath and then transferred to 20 mL of PHH thawing medium (Sigma, InVitroGRO HT Medium, Cat. S03319) with gently mixing. The cells were then centrifuged at […] for 5 min, the supernatant was discarded and the tube was refilled with 25 mL of PHH plating medium (Sigma, InVitroGRO CP Medium, Cat. S03317). The tube was shaken very gently to re-suspend all cells, and then 50 μL of cells were transferred to each well 384-well collagen I coated plate with appropriate liquid handling equipment, e.g. Integra VIAFLO384 or Agilent Bravo. The cells were then cultured for 24 hours in a cell incubator. For HBV infection, after PHH attachment on the culture plate, the plating medium was removed and replenished with PHH culture medium containing HBV virus. The PHH culture medium was prepared with Dulbecco's Modified Eagle Medium (DMEM)/F12 (1:1 in volume ratio) containing 10% fetal bovine serum (Gibco, Cat. 10099141), 5 ng/mL human epidermal growth factor (Gibco, Cat. PHG0311L), 20 ng/mL dexamethasone (Sigma, Cat. D4902-100 mg), 250 ng/mL human recombinant insulin (Gibco, Cat. 41400045) and 100 U/mL penicillin. HBV virus at 200 genome equivalent (GE) per cell with 4% PEG8000 (Sigma, Cat. P1458) containing culture medium were added to the PHH culture medium for infection. The cells were then cultured for 24 hours in cell incubator. Then the cell culture supernatant was removed. The HBV-infected PHH were cultured with sandwich culture method with MEI culture medium containing 1% DMSO and 0.25 mg/mL matrix gel for 72 hours. The supernatant was then refreshed with PHH culture medium containing different concentrations of testing compounds for two times with 72-hour interval. At the end of treatment, the supernatant was collected for viral markers measurements, including HBsAg, HBeAg, HBV DNA and cytotoxicity. HBsAg and HBeAg were detected using alphalisa method using their specific antibodies. For HBV DNA detection, HBV DNA Quantitative Fluorescence Diagnostic Kit (Sansure Biotech Inc.) was used following the manufacture's protocol. Cytotoxicity was determined using Cell Counting Kit-8 (CCK8, Dojindo Molecular Technologies, Inc.).

HBeAg = assay: PHH HBV natural infection assay, HBeAg (alphalisa); conditions: Hepatitis B virus, Hepatocyte, read-out: HBeAg IC50
Method: as §1
(§2) The compounds of the present invention were tested for their capacity to inhibit HBsAg and HBeAg as described herein.

HBsAg = assay: PHH HBV natural infection assay, HBsAg (alphalisa); conditions: Hepatitis B virus, Hepatocyte, read-out: HBsAg IC50
Method: as §1, §2

## CC(C)(C)C(=O)NC1CC2(C1)CN(c1nc3cc(Cl)ccc3o1)C2 [Example 27, N-[2-(5-chloro-1,3-benzoxazol-2-yl)-2-azaspiro[3.3]heptan-6-yl]-2,2-dimethyl-propanamide]
[1]
  CC50 at 144 h: > 100 µM
HBeAg
  IC50: 3.69 µM
HBsAg
  IC50: 5.67 µM

## CC(C)CC(=O)NC1CC2(C1)CN(c1nc3cc(Cl)ccc3o1)C2 [Example 28, N-[2-(5-chloro-1,3-benzoxazol-2-yl)-2-azaspiro[3.3]heptan-6-yl]-3-methyl-butanamide]
[1]
  CC50 at 144 h: 76.6 µM
HBeAg
  IC50: 2.18 µM
HBsAg
  IC50: 3.31 µM

## CC(C)(O)C(=O)NC1CC2(C1)CN(c1nc3cc(Cl)ccc3o1)C2 [Example 29, N-[2-(5-chloro-1,3-benzoxazol-2-yl)-2-azaspiro[3.3]heptan-6-yl]-2-hydroxy-2-methyl-propanamide]
[1]
  CC50 at 144 h: > 100 µM
HBeAg
  IC50: 7.37 µM
HBsAg
  IC50: 7.13 µM

## O=C(NC1CC2(C1)CN(c1nc3cc(Cl)ccc3o1)C2)C1CC1(F)F (stereo not drawn) [Example 30, N-[2-(5-chloro-1,3-benzoxazol-2-yl)-2-azaspiro[3.3]heptan-6-yl]-2,2-difluoro-cyclopropanecarboxamide]
[1]
  CC50 at 144 h: > 100 µM
HBeAg
  IC50: 2.7 µM
HBsAg
  IC50: 3.5 µM

## O=C(NC1CC2(C1)CN(c1nc3cc(Cl)ccc3o1)C2)C1CC(F)(F)C1 [Example 31, N-[2-(5-chloro-1,3-benzoxazol-2-yl)-2-azaspiro[3.3]heptan-6-yl]-3,3-difluoro-cyclobutanecarboxamide]
[1]
  CC50 at 144 h: > 100 µM
HBeAg
  IC50: 6.22 µM
HBsAg
  IC50: 6.98 µM

## O=C(NC1CC2(C1)CN(c1nc3cc(Cl)ccc3o1)C2)C1CCC(F)(F)C1 (stereo not drawn) [Example 32, N-[2-(5-chloro-1,3-benzoxazol-2-yl)-2-azaspiro[3.3]heptan-6-yl]-3,3-difluoro-cyclopentanecarboxamide]
[1]
  CC50 at 144 h: > 100 µM
HBeAg
  IC50: 10.3 µM
HBsAg
  IC50: 4.25 µM

## CC1(C(=O)NC2CC3(C2)CN(c2nc4cc(Cl)ccc4o2)C3)CCS(=O)(=O)C1 (stereo not drawn) [Example 33, N-[2-(5-chloro-1,3-benzoxazol-2-yl)-2-azaspiro[3.3]heptan-6-yl]-3-methyl-1,1-dioxo-thiolane-3-carboxamide]
[1]
  CC50 at 144 h: > 100 µM
HBeAg
  IC50: 4.4 µM
HBsAg
  IC50: 4.51 µM

## O=C(NC1CC2(C1)CN(c1nc3cc(Cl)ccc3o1)C2)C1CS(=O)(=O)C1 [Example 34, N-[2-(5-chloro-1,3-benzoxazol-2-yl)-2-azaspiro[3.3]heptan-6-yl]-1,1-dioxo-thietane-3-carboxamide]
[1]
  CC50 at 144 h: > 100 µM
HBeAg
  IC50: 4.48 µM
HBsAg
  IC50: 5.5 µM

## O=C(CC1CS(=O)(=O)C1)NC1CC2(C1)CN(c1nc3cc(Cl)ccc3o1)C2 (stereo not drawn) [Example 35, N-[2-(5-chloro-1,3-benzoxazol-2-yl)-2-azaspiro[3.3]heptan-6-yl]-2-(1,1-dioxothietan-3-yl)acetamide]
[1]
  CC50 at 144 h: > 100 µM
HBeAg
  IC50: 2.22 µM
HBsAg
  IC50: 2.36 µM

## O=C(NC1CC2(C1)CN(c1nc3cc(Cl)ccc3o1)C2)C1CCS(=O)(=O)CC1 [Example 36, N-[2-(5-chloro-1,3-benzoxazol-2-yl)-2-azaspiro[3.3]heptan-6-yl]-1,1-dioxo-thiane-4-carboxamide]
[1]
  CC50 at 144 h: > 100 µM
HBeAg
  IC50: 4.03 µM
HBsAg
  IC50: 8.28 µM

## O=C(NC1CC2(C1)CN(c1nc3ccc(Cl)cc3o1)C2)c1ccnc(S(=O)(=O)C2CC2)c1 [Example 37, N-[2-(6-chloro-1,3-benzoxazol-2-yl)-2-azaspiro[3.3]heptan-6-yl]-2-cyclopropylsulfonyl-pyridine-4-carboxamide]
[1]
  CC50 at 144 h: > 10 µM
HBeAg
  IC50: 6.26 µM
HBsAg
  IC50: 7.75 µM

## COc1cc(C(=O)NC2CC3(C2)CN(c2nc4ccc(Cl)cc4o2)C3)ccn1 [Example 38, N-[2-(6-chloro-1,3-benzoxazol-2-yl)-2-azaspiro[3.3]heptan-6-yl]-2-methoxy-pyridine-4-carboxamide]
[1]
  CC50 at 144 h: > 10 µM
HBeAg
  IC50: 5.73 µM
HBsAg
  IC50: 6.89 µM

## COCCOc1cc(C(=O)NC2CC3(C2)CN(c2nc4cc(Cl)ccc4o2)C3)ccn1 [Example 39, N-[2-(5-chloro-1,3-benzoxazol-2-yl)-2-azaspiro[3.3]heptan-6-yl]-2-(2-methoxyethoxy)pyridine-4-carboxamide]
[1]
  CC50 at 144 h: > 100 µM
HBeAg
  IC50: 4.37 µM
HBsAg
  IC50: 6.47 µM

## CS(=N)(=O)c1ccc(C(=O)NC2CC3(C2)CN(c2nc4cc(Cl)ccc4o2)C3)o1 (stereo not drawn) [Example 40, N-[2-(5-chloro-1,3-benzoxazol-2-yl)-2-azaspiro[3.3]heptan-6-yl]-5-(methylsulfonimidoyl)furan-2-carboxamide]
[1]
  CC50 at 144 h: > 100 µM
HBeAg
  IC50: 4.78 µM
HBsAg
  IC50: 6.13 µM

## CC(C)Oc1cc(C(=O)NC2CC3(C2)CN(c2nc4ccc(Cl)cc4o2)C3)ccn1 [Example 41, N-[2-(6-chloro-1,3-benzoxazol-2-yl)-2-azaspiro[3.3]heptan-6-yl]-2-isopropoxy-pyridine-4-carboxamide]
[1]
  CC50 at 144 h: > 10 µM
HBeAg
  IC50: 3.81 µM
HBsAg
  IC50: 5.87 µM

## O=C(NC1CC2(C1)CN(c1nc3cc(Cl)ccc3o1)C2)c1ccc(C(F)(F)F)o1 [Example 42, N-[2-(5-chloro-1,3-benzoxazol-2-yl)-2-azaspiro[3.3]heptan-6-yl]-5-(trifluoromethyl)furan-2-carboxamide]
[1]
  CC50 at 144 h: > 100 µM
HBeAg
  IC50: 4.67 µM
HBsAg
  IC50: 5.66 µM

## COc1cc(C(=O)NC2CC3(C2)CN(c2nc4cc(Cl)ccc4o2)C3)ccn1 [Example 43, N-[2-(5-chloro-1,3-benzoxazol-2-yl)-2-azaspiro[3.3]heptan-6-yl]-2-methoxy-pyridine-4-carboxamide]
[1]
  CC50 at 144 h: 84.8 µM
HBeAg
  IC50: 1.01 µM
HBsAg
  IC50: 1.76 µM

## O=C(NC1CC2(C1)CN(c1nc3cc(Cl)ccc3o1)C2)c1ccc(S(=O)(=O)C2CC2)o1 [Example 44, N-[2-(5-chloro-1,3-benzoxazol-2-yl)-2-azaspiro[3.3]heptan-6-yl]-5-cyclopropylsulfonyl-furan-2-carboxamide]
[1]
  CC50 at 144 h: > 100 µM
HBeAg
  IC50: 1.28 µM
HBsAg
  IC50: 2.27 µM

## Cc1cc(C(=O)NC2CC3(C2)CN(c2nc4cc(Cl)ccc4o2)C3)ccn1 [Example 45, N-[2-(5-chloro-1,3-benzoxazol-2-yl)-2-azaspiro[3.3]heptan-6-yl]-2-methyl-pyridine-4-carboxamide]
[1]
  CC50 at 144 h: 80.1 µM
HBeAg
  IC50: 1.3 µM
HBsAg
  IC50: 2.73 µM

## COc1ccc(C(=O)NC2CC3(C2)CN(c2nc4cc(Cl)ccc4o2)C3)cn1 [Example 46, N-[2-(5-chloro-1,3-benzoxazol-2-yl)-2-azaspiro[3.3]heptan-6-yl]-6-methoxy-pyridine-3-carboxamide]
[1]
  CC50 at 144 h: > 100 µM
HBeAg
  IC50: 2.86 µM
HBsAg
  IC50: 4.74 µM

## C[S@](=N)(=O)c1ccc(C(=O)NC2CC3(C2)CN(c2nc4cc(Cl)ccc4o2)C3)o1 [Example 47, N-[2-(5-chloro-1,3-benzoxazol-2-yl)-2-azaspiro[3.3]heptan-6-yl]-5-[(S)-methylsulfonimidoyl]furan-2-carboxamide]
[1]
  CC50 at 144 h: > 100 µM
HBeAg
  IC50: 2.31 µM
HBsAg
  IC50: 4.24 µM

## CS(=O)(=O)c1ccc(C(=O)NC2CC3(C2)CN(c2nc4cc(Cl)cnc4o2)C3)o1 [Example 48, N-[2-(6-chlorooxazolo[5,4-b]pyridin-2-yl)-2-azaspiro[3.3]heptan-6-yl]-5-methylsulfonyl-furan-2-carboxamide]
[1]
  CC50 at 144 h: > 100 µM
HBeAg
  IC50: 2.95 µM
HBsAg
  IC50: 3.8 µM

## CCOc1cc(C(=O)NC2CC3(C2)CN(c2nc4cc(Cl)ccc4o2)C3)ccn1 [Example 49, N-[2-(5-chloro-1,3-benzoxazol-2-yl)-2-azaspiro[3.3]heptan-6-yl]-2-ethoxy-pyridine-4-carboxamide]
[1]
  CC50 at 144 h: > 100 µM
HBeAg
  IC50: 1.7 µM
HBsAg
  IC50: 3.1 µM

## CC(C)CS(=N)(=O)c1ccc(C(=O)NC2CC3(C2)CN(c2nc4cc(Cl)ccc4o2)C3)o1 (stereo not drawn) [Example 50, N-[2-(5-chloro-1,3-benzoxazol-2-yl)-2-azaspiro[3.3]heptan-6-yl]-5-(isobutylsulfonimidoyl)furan-2-carboxamide]
[1]
  CC50 at 144 h: 95.4 µM
HBeAg
  IC50: 1.49 µM
HBsAg
  IC50: 1.66 µM

## CS(=O)(=O)Cc1ccc(C(=O)NC2CC3(C2)CN(c2nc4cc(Cl)ccc4o2)C3)o1 [Example 51, N-[2-(5-chloro-1,3-benzoxazol-2-yl)-2-azaspiro[3.3]heptan-6-yl]-5-(methylsulfonylmethyl)furan-2-carboxamide]
[1]
  CC50 at 144 h: > 100 µM
HBeAg
  IC50: 1.95 µM
HBsAg
  IC50: 2.22 µM
